Measurements reported in patent US9375411B2, “Uses and methods for the treatment of liver diseases or conditions” (Verlyx Pharma Inc., priority 2012, dated 2016).
“And” between values parts separate entries of the source, which are not always exact repeats. Equal values may be shown once. Read-outs that look alike come from different tables or passages of the source.

Columns and labels:
[1] = Repeat dose oral capsule or intravenous infusion pharmacokinetics in blood; type: in vivo, Male Beagle Dogs; conditions: Beagle dogs, 2-h IV 4 mg/kg/day, Day 1, individual animals and Mean
Method: (§1) Pharmacokinetics Study in Male Beagle Dogs. Three oral formulations were tested.
(§2) In this example, the pharmacokinetics and biodistribution are studied in Male Beagle Dogs. The Dog is a relevant model since the elimination rate from the different organs, mainly the liver, are closer to that observed in man. Three oral formulations were tested and compared to the injectable formulation: […]
(§3) The test item dosing formulation was administered once daily as a 2-hour intravenous infusion via the saphenous and/or cephalic vein using an infusion pump, using a temporary peripheral vein catheter attached to a syringe, for 2 consecutive days. The dose volume was 4 mL/kg and the infusion rate was 2 mL/kg/hour for all animals. The actual volume administered to each animal was calculated and adjusted based on the most recent practical body weight of each animal. The catheter was flushed with 0.9% Sodium Chloride for Injection, USP (saline) in order to ensure that the whole intended dose was administered to the animals, after which the temporary catheter was removed and discarded.
(§4) The test item was administered twice daily (targeted time: 12 hours apart) by oral capsule administration for 3 consecutive days to fasted animals (at least 4 hours prior to dosing). Food was returned 2 hours post-dose.
(§5) The number of capsules to be administered to each animal was fixed to 2 capsules/animals/occasion. If needed, following dosing, the oral cavity was rinsed with an appropriate volume of reverse osmosis water to facilitate swallowing. The oral cavity was inspected following dosing to ensure that the capsules have been swallowed.

[2] = Repeat dose oral capsule or intravenous infusion, tissue concentrations and ratios; type: in vivo, Male Beagle Dogs; conditions: Beagle dogs; for Kp / Tmax / AUC(0-t) / Cmax: male, dog
Method: as §1, §2, §3, §4, §5
The following tables present the different Pharmacokinetic parameters for IV and PO groups, the concentrations of pentamidine in different tissues and the tissue to blood and tissue to liver concentration ratios.

[3] = tested on: chemokines interleukin (IL)-8, GRO alpha and MCP-1; conditions: human whole blood, cited from earlier work
[4] = in vivo; conditions: male, Beagle, dog, liver, iv, 4 mg/kg/day
[5] = tested on: GalN/LPS-induced liver injury; experiment: GalN/LPS fulminant liver injury survival study; type: in vivo; conditions: C57BL/6 mice; IP 30 minutes prior GalN/LPS; PENTAMIDINE 40 mpk, Decamidine 10 mpk
Method: In this experiment, the 8-hour survival rate for C57BL/6 mice is evaluated when treated or not with two different aromatic diamidines (pentamidine isethionate(C5) and decamidine isethionate (C10)). Both compounds were administered intraperitoneally at doses close to their MTD 30 minutes prior a GalN/LPS-induced liver injury.

[6] = Repeat dose oral tablet or intravenous infusion, biodistribution and tissue elimination; conditions: Beagle dogs
[7] = in vivo; conditions: female, Fox Chase SCID CB17, mouse, oral
[8] = tested on: GalN/LPS fulminant liver injury; experiment: GalN/LPS fulminant liver injury model; type: in vivo; conditions: mice; for Serum ALT / Serum ALT levels reduced relative to PBS vehicle: 6.5 hours
Method: To evaluate the anti-inflammatory, anti-TNFα and hepato-protective properties of PENTAMIDINE, a Galactosamine/Liposaccharide (GalN/LPS) fulminant liver injury model was used.
Three independent experiments on mice untreated or pretreated with vehicle, compound PENTAMIDINE (isethionate salt) at doses of 25 and 40 mg/kg. PENTAMIDINE is dosed IP 30-minutes prior to the co-treatment with subtoxic doses of hepatotoxin GalN and immune stimulant LPS. Mice were sacrificed at 6.5 hours after GalN/LPS for analysis. The analysis of alanine transaminase (ALT) serum levels and histological observations allow the evaluation of the hepato-protective, anti-TNF-α, anti-inflammatory and/or anti-fibrotic activity.
To evaluate the anti-inflammatory, anti-TNFα and hepatoprotective properties of different pentamidine salt such as pentamidine bis-HCl (penta-HCL) and pentamidine tosylate (penta-Tos), a Galactosamine/Liposaccharide (GalN/LPS) fulminant liver injury model was used.
Pentamidine HCl and Tosylate were dosed IP 30-minutes prior to the co-treatment with subtoxic doses of hepatotoxin GalN and immune stimulant LPS. Mice were sacrificed at 6.5 hours after GalN/LPS for analysis. The analysis of alanine transaminase (ALT) serum levels and histological observations allow the evaluation of the hepato-protective, anti-TNF-α, anti-inflammatory and/or anti-fibrotic activity. Results

[9] = male, Beagle, dog, iv, 4 mg/kg/day
[10] = intravenous dosing, individual animals 1001-1006 and Mean
[11] = summary (group mean), Group 1 IV, Groups 2-4 oral capsules
[12] = IP 25 mg/kg 30 minutes prior to GalN/LPS
[13] = IP 40 mg/kg 30 minutes prior to GalN/LPS

For `N=C(N)c1ccc(OCCCCCOc2ccc(C(=N)N)cc2)cc1` [pentamidine, pentamidine bis(2-hydroxyethanesulfonate)], the “AUC % Extrap” value ([1]; 4 mg/kg/day) was 22.12% and 18.04% and 19.13% and 48.74% and 43.8% and 19.89%, the AUCINF ([1]; 4 mg/kg/day) was 24.54 µM·h and 35.82 µM·h and 9.09 µM·h and 20.95 µM·h and 35.1 µM·h and 17.89 µM·h and the AUClast ([1]; 4 mg/kg/day) was 19.11 µM·h and 29.35 µM·h and 7.35 µM·h and 10.74 µM·h and 19.73 µM·h and 14.33 µM·h. The CL ([1]; 4 mg/kg/day) was 8 mL/min/kg and 5.5 mL/min/kg and 21.5 mL/min/kg and 9.33 mL/min/kg and 5.67 mL/min/kg and 11 mL/min/kg, the Cmax ([1]; 4 mg/kg/day) was 2.2 µM and 2.16 µM and 1.74 µM and 1.22 µM and the MRTlast ([1]; 4 mg/kg/day) was 45.29 h and 65.59 h and 6.36 h and 18.84 h and 30.73 h and 38.14 h. The Tlast ([1]; 4 mg/kg/day) was 120 h and 168 h and 24 h and 48 h and 72 h and 96 h, the Tmax ([1]; 4 mg/kg/day) was 2 h and the Vz ([1]; 4 mg/kg/day) was 26.52 L/kg and 18.59 L/kg and 22.93 L/kg and 32.19 L/kg and 33.41 L/kg. The t1/2 ([1]; 4 mg/kg/day) was 35.23 h, the Cmax [1, 9] was 1.43 µM and the half-life [1, 9] was 47 h. For the same compound, the Tmax ([1]; male, Beagle, dog, iv, 4 mg/kg/day, read-out: Tmax) was 1 h, the Vd ([1]; male, Beagle, dog, iv, 4 mg/kg/day, read-out: Vz) was 32.5 L/kg and the Cmax ([1]; male, dog) was 1.04 µM. For the same compound, the “Liver AUClast” value ([2]; IV dosing, Day 1) was 27072 µM·h, the “Liver Cmax” value ([2]; IV dosing, Day 1) was 210 µM and the “Lung AUClast” value ([2]; IV dosing, Day 1) was 1807.2 µM·h. For the same compound, the “Lung Cmax” value ([2]; IV dosing, Day 1) was 13.4 µM, the “Tissue-to-Liver Lung, based on AUC” value ([2]; IV, *Based on AUC) was 6.67* % and the “Tissue-to-Liver Muscle, based on AUC” value ([2]; IV, *Based on AUC) was 2.9* %. For the same compound, the “Tissue-to-Liver Skin, based on AUC” value ([2]; IV, *Based on AUC) was 0.87* %, the “Concentration Blood” value [2, 10] was 0.16 μmol/L and 0.07 μmol/L and 0.08 μmol/L (2×) and 0.121 μmol/L and 0.25 μmol/L and the “Concentration Brain” value [2, 10] was 0.80 μmol/L (3×) and 0.70 μmol/L and 0.90 μmol/L and 0.50 μmol/L. The “Concentration Heart” value [2, 10] was 22.30 µM and 13.90 µM and 15.80 µM and 20.20 µM and 10.10 µM and 14.20 µM, the “Concentration Kidney” value [2, 10] was 53.10 µM and 38.30 µM and 48.70 µM and 55.80 µM and 44.80 µM and 39.70 µM and the “Concentration Liver” value [2, 10] was 208 µM and 174 µM and 168 µM and 210 µM and 125 µM and 159 µM. For the same compound, the “Concentration Lung” value [2, 10] was 11.56 µM and 11.52 µM and 13.39 µM and 10.48 µM and 9.80 µM and 11.80 µM, the “Concentration Muscle” value [2, 10] was 5.28 µM and 4.98 µM and 5.29 µM and 6.11 µM and 2.82 µM and 5.56 µM and the “Concentration Pancreas” value [2, 10] was 8.50 µM and 6.00 µM and 8.00 µM and 8.20 µM and 4.60 µM and 7.10 µM. The “Concentration Skin” value [2, 10] was 1.45 μmol/L and 1.23 μmol/L and 1.41 μmol/L and 1.80 μmol/L and 1.63 μmol/L (2×), the “Tissue-to-Liver Brain” value [2, 11] was 0.46% and the “Tissue-to-Liver Heart” value [2, 11] was 9.66%. The “Tissue-to-Liver Kidney” value [2, 11] was 28.4%, the “Tissue-to-Liver Lung” value [2, 11] was 6.74% and the “Tissue-to-Liver Muscle” value [2, 11] was 2.9%. For the same compound, the “Tissue-to-Liver Pancreas” value [2, 11] was 4.34%, the “Tissue-to-Liver Skin” value [2, 11] was 0.91% and the Kp ([2]; Beagle, brain/blood, intravenous, summary (group mean), Group 1 IV, Groups 2-4 oral capsules, read-out: Tissue-to-blood ratio Brain) was 6.19. For the same compound, the Kp ([2]; Beagle, heart/blood, intravenous, summary (group mean), Group 1 IV, Groups 2-4 oral capsules, read-out: Tissue-to-blood ratio Heart) was 133, the Kp ([2]; Beagle, kidney/blood, intravenous, summary (group mean), Group 1 IV, Groups 2-4 oral capsules, read-out: Tissue-to-blood ratio Kidney) was 386 and the Kp ([2]; Beagle, liver/blood, intravenous, summary (group mean), Group 1 IV, Groups 2-4 oral capsules, read-out: Tissue-to-blood ratio Liver) was 1690. The Kp ([2]; Beagle, liver/blood, iv, 4 mg/kg/day, IV, *Based on AUC, read-out: Tissue-to-blood ratio Liver, based on AUC) was 922, the Kp ([2]; Beagle, lung/blood, intravenous, summary (group mean), Group 1 IV, Groups 2-4 oral capsules, read-out: Tissue-to-blood ratio Lung) was 111 and the Kp ([2]; Beagle, lung/blood, iv, 4 mg/kg/day, IV, *Based on AUC, read-out: Tissue-to-blood ratio Lung, based on AUC) was 61.6. It also gave a Kp ([2]; Beagle, muscle/blood, intravenous, summary (group mean), Group 1 IV, Groups 2-4 oral capsules, read-out: Tissue-to-blood ratio Muscle) of 48.7, a Kp ([2]; Beagle, muscle/blood, iv, 4 mg/kg/day, IV, *Based on AUC, read-out: Tissue-to-blood ratio Muscle, based on AUC) of 8.01 and a Kp ([2]; Beagle, pancreas/blood, intravenous, summary (group mean), Group 1 IV, Groups 2-4 oral capsules, read-out: Tissue-to-blood ratio Pancreas) of 58.4. For the same compound, the Kp ([2]; Beagle, skin/blood, intravenous, summary (group mean), Group 1 IV, Groups 2-4 oral capsules, read-out: Tissue-to-blood ratio Skin) was 14.4, the Kp ([2]; Beagle, skin/blood, iv, 4 mg/kg/day, IV, *Based on AUC, read-out: Tissue-to-blood ratio Skin, based on AUC) was 26.8 and the Kp ([2]; beagle, brain / blood, iv, intravenous dosing, individual animals and mean, read-out: Tissue-to-blood ratio Brain) was 4.13. The Kp ([2]; beagle, kidney / blood, iv, intravenous dosing, individual animals and mean, read-out: Tissue-to-blood ratio Kidney) was 370, the Kp ([2]; beagle, pancreas / blood, iv, intravenous dosing, individual animals and mean, read-out: Tissue-to-blood ratio Pancreas) was 38 and the Tmax ([2]; liver, 4 mg/kg/day, IV dosing, Day 1, read-out: Liver Tmax) was 168 h. The Tmax ([2]; lung, 4 mg/kg/day, IV dosing, Day 1, read-out: Lung Tmax) was 120 h, the AUC(0-t) ([2]; muscle, 4 mg/kg/day, IV dosing, Day 1, read-out: Muscle AUClast) was 786 µM·h and the Cmax ([2]; muscle, 4 mg/kg/day, IV dosing, Day 1, read-out: Muscle Cmax) was 6.1 µM. The Tmax ([2]; muscle, 4 mg/kg/day, IV dosing, Day 1, read-out: Muscle Tmax) was 168 h, the AUC(0-t) ([2]; skin, 4 mg/kg/day, IV dosing, Day 1, read-out: Skin AUClast) was 235 µM·h and the Cmax ([2]; skin, 4 mg/kg/day, IV dosing, Day 1, read-out: Skin Cmax) was 1.8 µM. The Tmax ([2]; skin, 4 mg/kg/day, IV dosing, Day 1, read-out: Skin Tmax) was 168 h, the “PHA-induced generation of IL-6” value ([3]; 10 microM) was “partial inhibition” and the “PHA-induced generation of TNF-alpha, IL-1 beta, IL-2, IL-4, IL-5, IL-10 and IFN-gamma” value ([3]; 10 microM) was “no significant inhibitory effect”. The “LPS- and PHA-stimulated whole blood generation of chemokines IL-8, GRO alpha, MCP-1” value [3] was “dose-dependently suppress”, the half-life [4] was about 672 h and the 8-hour survival [5] was 83%. The “Biodistribution in organs following PO administration” value ([6]; instant-release tablet) was “favored the liver”, the “exposure to the pancreas and kidney, PO versus IV administration” value ([6]; instant-release tablet PO vs IV, normalized liver concentrations) was “significantly lower exposure” and the bioavailability [7] was about 1%. The “Numbers of TUNEL-positive cells per high power field in the livers” value ([8]; GalN/LPS, P<0.0002 as compared to PBS+GalN/LPS) was “significantly decreased”, the “Serum ALT” value [8, 12] was 402+/−105 and the “Serum ALT levels reduced relative to PBS vehicle” value [8, 12] was 93%. For the same compound, the “Serum ALT” value [8, 13] was 177+/−44 and the “Serum ALT levels reduced relative to PBS vehicle” value [8, 13] was 97%.
